Bridge positions count the residues as written; N and C are the ends. Ends that are not written are not given here. Peptide text beside a SMILES is read from it.
How the values were obtained:
[1] = literature values; cited from earlier work
[2] = system: serum calcium concentration
Procedure: Rats were divided into four groups of seven animals, and each group was assigned at random to a dose of standard or test solution. Low and high doses were chosen from the linear portion of the dose-response curve. For the salmon calcitonin standard, the values were 0.7 and 2.1 mcg. peptide/100 g. body weight (BW). This dose approximates 3 and 9 MU/100 g. BW. Peptides were given by subcutaneous injection (0.2 ml/100 g. BW) and blood was withdrawn 1 hour later for serum calcium determination. Sera are processed and analyzed within two hours of collection.

Compound | hypocalcemic potency [1] | also measured
(1,7-α-L-aminosuberic acid) eel calcitonin | about 3400 Iu/mg | 
CC(C)C[C@H](NC(=O)[C@H](CCCCN)NC(=O)CNC(=O)[C@H](CC(C)C)NC(=O)[C@@H](NC(=O)[C@@H]1CSSC[C@H](N)C(=O)N[C@@H](CO)C(=O)N[C@@H](CC(N)=O)C(=O)N[C@@H](CC(C)C)C(=O)N[C@@H](CO)C(=O)N[C@@H]([C@@H](C)O)C(=O)N1)C(C)C)C(=O)N[C@@H](CO)C(=O)N[C@@H](CCC(N)=O)C(=O)N[C@@H](CCC(=O)O)C(=O)N[C@@H](CC(C)C)C(=O)N[C@@H](Cc1c[nH]cn1)C(=O)N[C@@H](CCCCN)C(=O)N[C@@H](CC(C)C)C(=O)N[C@@H](CCC(N)=O)C(=O)N[C@H](C(=O)N[C@@H](Cc1ccc(O)cc1)C(=O)N1CCC[C@H]1C(=O)N[C@@H](CCCNC(=N)N)C(=O)N[C@H](C(=O)N[C@@H](CC(N)=O)C(=O)N[C@H](C(=O)NCC(=O)N[C@@H](CO)C(=O)NCC(=O)N[C@H](C(=O)N1CCC[C@H]1C(N)=O)[C@@H](C)O)[C@@H](C)O)[C@@H](C)O)[C@@H](C)O [standard salmon calcitonin, Salmon calcitonin] |  | potency of the standard, independently determined ([2]; standard salmon calcitonin used, independently determined): greater than 4,000 IU/mg
CC(C)C[C@H](NC(=O)[C@H](CCCCN)NC(=O)CNC(=O)[C@H](CC(C)C)NC(=O)[C@@H](NC(=O)[C@@H]1CSSC[C@H](N)C(=O)N[C@@H](CO)C(=O)N[C@@H](CC(N)=O)C(=O)N[C@@H](CC(C)C)C(=O)N[C@@H](CO)C(=O)N[C@@H]([C@@H](C)O)C(=O)N1)C(C)C)C(=O)N[C@@H](CO)C(=O)N[C@@H](CCC(N)=O)C(=O)N[C@@H](CCC(=O)O)C(=O)N[C@@H](CC(C)C)C(=O)N[C@@H](Cc1c[nH]cn1)C(=O)N[C@@H](CCCCN)C(=O)N[C@@H](CC(C)C)C(=O)N[C@@H](CCC(N)=O)C(=O)N[C@H](C(=O)N[C@@H](Cc1ccc(O)cc1)C(=O)N1CCC[C@H]1C(N)=O)[C@@H](C)O [calcitonin-(1-23)-peptide amide, Calcitonin-(1-23)-peptide amide] (H-CSNLSTCVLGKLSQELHKLQTYP-NH2; disulfide 1-7) |  | biological potency ([2]; rat, in vivo, sc): 11.5 IU/mg
eel calcitonin (CSNLSTCVLGKLSQELHKLQTYPRTDVGAGTP-NH2; disulfide 1-7; ends not checked; UniProt P01262 1-32, looked up) [synthetic eel calcitonin, synthetic eel calcitonin of Monikawa et al] | around 4300 Iu/mg | 

Source: patent publication US4605515A, “Calcitonin-(1-23)-peptide amide” (Armour Pharmaceutical Company, priority 1984, dated 1986)
